These results are taken from the supplement of paper PMC3493320.

This test deals with NCI-H295R. The test is described as follows: IC50 (antiproliferative, ATP content). The conditions noted are these: 48 h. Summed up: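 Adrenocortical carcinoma cells in 1536-well plates (1500 per well, serum-free DMEM plus ITS, overnight culture) were exposed for 48 h at 37 °C, 5% CO2 to pin-transferred compounds at 8 final concentrations ranging 0.6 nM to 46 µM. ATP content was then read as CellTiter-Glo luminescence and normalised to vehicle and positive-control wells. The IC50 came from logistic curve fits, and any compound lacking a concentration response was recorded as above the top dose.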
In general, IC50 refers to the concentration that gives 50% inhibition. The low end stands for higher potency, the high end for lower potency. Consider `N/1C(N(\C=C\1)C)=S`, for which the 50% inhibitory concentration (IC50) was greater than 46 µM.

Take `CS(=O)(=O)O.N=C(N)Nc1ccc(C(=O)Oc2ccc3cc(C(=N)N)ccc3c2)cc1`: the IC50 is greater than 46 µM.

With `COc1ccccc1N1CCN(CCCNc2cc(=O)n(C)c(=O)n2C)CC1.Cl`, the IC50 was greater than 46 µM.

Regarding `CC(CN1c2ccccc2Sc2cccnc21)N(C)C.Cl` (stereo not given), the IC50 was greater than 46 µM.

`CCCOC(=O)c1ccc(N)cc1` yielded an IC50 greater than 46 µM.

`CC(=O)Nc1ncc([N+](=O)[O-])s1` showed an IC50 greater than 46 µM.

Take `CC(=O)Oc1ccc(C(=C2CCCCC2)c2ccc(OC(C)=O)cc2)cc1`: the IC50 is greater than 46 µM.

`C1[C@@H]([C@H]([C@@H]([C@H]([N@]1CCO)CO)O)O)O` registered an IC50 greater than 46 µM.

In turn, `CCNC(=O)NCc1cccc(Cl)c1` returned a concentration for half-maximal inhibition (IC50) greater than 46 µM.

Compound `Nc1nc(=O)[nH]cc1F` showed an IC50 greater than 46 µM.

For the compound `COc1ccc2cc([C@H](C)CO)ccc2c1`, the IC50 was greater than 46 µM.

`CCCCCCCCCCCC(=O)OCC(O)CO` (stereo not given) gave an IC50 greater than 46 µM.

Regarding `O=C(O)c1ccc(S(=O)(=O)N(Cl)Cl)cc1`, the half-inhibitory concentration (IC50) is greater than 46 µM.

Compound `COc1ccc(CCNC[C@H](O)c2ccc(O)cc2)cc1OC` showed an IC50 greater than 46 µM.

For `CCOC(=O)C1(c2ccccc2)CCN(CCC(C#N)(c2ccccc2)c2ccccc2)CC1.Cl`, the half-inhibitory concentration (IC50) is greater than 46 µM.

`Cc1ncc(COP(=O)(O)O)c(CN)c1O` gave an IC50 greater than 46 µM.

On to `Cc1nc(-c2ccc(Cl)cc2)oc1COC(C)(C)C(=O)O`, for which the IC50 is greater than 46 µM.

For the compound `CC(C)NCC(O)c1ccc(NS(C)(=O)=O)cc1.Cl` (stereo not given), the IC50 was greater than 46 µM.

In the case of `CCc1nnc(NS(=O)(=O)c2ccc(N)cc2)s1`, the IC50 was greater than 46 µM.

In turn, `O=C([O-])CCC/C=C\C[C@@H]1[C@@H](/C=C/[C@@H](O)COc2cccc(Cl)c2)[C@H](O)C[C@@H]1O.[Na+]` gave an IC50 greater than 46 µM.

For `CCO[C@@H]1O[C@H](C(COCc2ccccc2)OCc2ccccc2)[C@H](OCc2ccccc2)[C@H]1O` (stereo not given in full), the 50% inhibitory concentration (IC50) was greater than 46 µM.

Consider `O=C(CCCN1CCC2(CC1)C(=O)NCN2c1ccccc1)c1ccc(F)cc1`, for which the IC50 is greater than 46 µM.

The compound `CS(=O)(=O)O.Cc1ccc2c(c1)c1c3n2CCNC3CCC1` (stereo not given) showed a 50% inhibitory concentration (IC50) greater than 46 µM.

For the compound `Cn1c(=O)c2c(ncn2C)n(C)c1=O.O=C(O)CC(O)(CC(=O)O)C(=O)O`, the IC50 is greater than 46 µM.

On to `N[C@@H](CSSC[C@H](N)C(=O)O)C(=O)O`, for which the IC50 was greater than 46 µM.

Compound `Nc1nnc(-c2cccc(Cl)c2Cl)c(N)n1` registered an IC50 greater than 46 µM.

In turn, `Cl.c1ccc2c(c1)CCCC2C1=NCCN1` (stereo not given) displayed an IC50 greater than 46 µM.

In the case of `CN(C)C(=O)Oc1cc(OC(=O)N(C)C)cc(C(O)CNC(C)(C)C)c1.Cl` (stereo not given), the IC50 was greater than 46 µM.

Regarding `O=C(O)CNC(=O)c1ccccc1I`, the 50% inhibitory concentration (IC50) is greater than 46 µM.

Regarding `O=C(O)CCCCCCCC(=O)O`, the IC50 is greater than 46 µM.

In turn, `CC1COc2c(N3CCN(C)CC3)c(F)cc3c(=O)c(C(=O)O)cn1c23` (stereo not given) yielded an IC50 greater than 46 µM.

`CNC(=O)Oc1ccc2c(c1)[C@]1(C)CCN(C)[C@@H]1N2C` had a concentration for half-maximal inhibition (IC50) greater than 46 µM.

On to `CC(C[N+](C)(C)C)OC(N)=O.[Cl-]` (stereo not given), for which the 50% inhibitory concentration (IC50) is greater than 46 µM.

In the case of `CCOc1cc(OCC)c(C(=O)CCC(=O)O)cc1OCC`, the IC50 was greater than 46 µM.

With `COc1ccc(S(=O)(=O)Nc2nnc(CC(C)C)s2)cc1`, the IC50 is greater than 46 µM.

The compound `CCOC(=O)Cc1ccc(-c2ccccc2)cc1` came in with an IC50 greater than 46 µM.

In the case of `COc1c2occc2c(OC)c2c(=O)cc(C)oc12`, the IC50 was greater than 46 µM.

`CC(C)[N+](C)(CCC(C(N)=O)(c1ccccc1)c1ccccc1)C(C)C`: the IC50 is greater than 46 µM.

With `CC1=C(/C=C/C(C)=C/C=C/C(C)=C/C=C/C=C(C)/C=C/C=C(C)/C=C/C2=C(C)C(=O)CCC2(C)C)C(C)(C)CCC1=O`, the IC50 was greater than 46 µM.

The compound `CN1CCC[C@@H]1c1cccnc1` came in with an IC50 greater than 46 µM.

As to `CC1(C)CO[C@@H](CC(=O)O)CN1`, the IC50 was greater than 46 µM.

As to `CC(C)(C)CC(C)(C)c1cc(Cc2cc(C(C)(C)CC(C)(C)C)cc(-n3nc4ccccc4n3)c2O)c(O)c(-n2nc3ccccc3n2)c1`, the IC50 is greater than 46 µM.

In turn, `C[N+](C)(C)CCCCCCCCCC[N+](C)(C)C.[Br-].[Br-]` yielded an IC50 greater than 46 µM.

Take `CCOC(=O)c1c(C)n(C)c2ccc(O)cc12`: the IC50 was greater than 46 µM.

Consider `CCN(CCO)CCCC(C)Nc1ccnc2cc(Cl)ccc12.O=S(=O)(O)O` (stereo not given), for which the IC50 was greater than 46 µM.

On to `O=C(O)C(N12)=[C@@]([C@@H]3OCCC3)S[C@]1([H])[C@]([C@@H](C)O)([H])C2=O`, for which the IC50 is greater than 46 µM.

For `CCCCCC(C)N.CCCCCC(C)N.O=S(=O)(O)O` (stereo not given), the IC50 is greater than 46 µM.

`C[N+]1(C)[C@@H]2CC[C@H]1C[C@H](OC(=O)c1c[nH]c3ccccc13)C2.[I-]`: the concentration for half-maximal inhibition (IC50) was greater than 46 µM.

With `O=C1C(=Cc2cccs2)CCCC1=Cc1cccs1`, the IC50 is greater than 46 µM.

The compound `CC(O)Cn1cnc2c1c(=O)n(C)c(=O)n2C` (stereo not given) displayed an IC50 greater than 46 µM.

In turn, `Cl.Nc1ccc(/N=N/c2ccccc2)c(N)n1` registered a 50% inhibitory concentration (IC50) greater than 46 µM.

The compound `O=C(NCCc1c[nH]c2ccccc12)c1cccnc1` gave an IC50 greater than 46 µM.

`CCCN(CCC)S(=O)(=O)c1ccc(C(=O)O)cc1` had an IC50 greater than 46 µM.

`CC(C(=O)O)c1ccc2c(c1)Cc1cccnc1O2` (stereo not given) had an IC50 greater than 46 µM.

`[H][C@]13[C@](O3)([H])[C@@H]2CC(OC(C(C4=CC=CS4)(C5=CC=CS5)O)=O)C[C@H]1[N@@+](C)2C.[Br-]` (stereo not given in full) showed an IC50 greater than 46 µM.

In the case of `CN1CCN(CCCN2c3ccccc3Sc3ccc(C(F)(F)F)cc32)CC1.Cl.Cl`, the 50% inhibitory concentration (IC50) was greater than 46 µM.

Compound `CC[C@H](C)[C@H](NC(=O)[C@H](Cc1ccccc1)NC(=O)[C@H](C)NC(=O)[C@H](CC(=O)O)NC(=O)[C@H](CCCCN)NC(=O)[C@H](CO)NC(=O)[C@@H]1CCCN1C(=O)[C@@H]1CCC(=O)N1)C(=O)NCC(=O)N[C@@H](CC(C)C)C(=O)N[C@@H](CCSC)C(N)=O` registered an IC50 greater than 46 µM.

As for `Cc1oc(=O)oc1CN1CCN(c2cc3c(cc2F)c(=O)c(C(=O)O)c2n3C(C)S2)CC1` (stereo not given), the half-maximal inhibitory concentration (IC50) is greater than 46 µM.

Turning to `Cl.N[C@H]1C(O)O[C@H](CO)[C@@H](O)[C@@H]1O` (stereo not given in full), the IC50 is greater than 46 µM.

Turning to `CC(C)[C@H](CC)CC[C@@H](C)[C@H]3CC[C@H]2[C@@H]4C\C=C1\C[C@@H](O)CC[C@]1(C)[C@H]4CC[C@@]23C`, the IC50 was greater than 46 µM.

Take `O[C@H]1[C@@H]([C@]2=CC(O)=C(O)C=C2)OC3=C(C(O)=CC(O)=C3)C1`: the IC50 was greater than 46 µM.

Compound `C[C@H]1c2cccc(O)c2C(=O)C2=C(O)[C@]3(O)C(=O)C(C(N)=O)=C(O)[C@@H](N(C)C)[C@@H]3[C@@H](O)[C@@H]21.Cl` had a 50% inhibitory concentration (IC50) greater than 46 µM.

`Nc1ccc(S(=O)(=O)Nc2ccnn2-c2ccccc2)cc1` gave an IC50 greater than 46 µM.

Consider `OC(C#CCN1CCCC1)(c1ccccc1)c1ccccc1`, for which the IC50 is greater than 46 µM.

The compound `CN(C)N=Nc1nc[nH]c1C(N)=O` came in with a concentration for half-maximal inhibition (IC50) greater than 46 µM.

`CC(=O)NC(Cc1ccccc1)C(=O)O` (stereo not given) showed an IC50 greater than 46 µM.

Take `COc1cc(OC)c(C(=O)CCCN2CCCC2)c(OC)c1.Cl`: the IC50 is greater than 46 µM.

In turn, `O=C(OCCOCCO)c1ccccc1Nc1cccc(C(F)(F)F)c1` showed an IC50 greater than 46 µM.

Compound `CNCC(O)c1ccc(OC(=O)C(C)(C)C)c(OC(=O)C(C)(C)C)c1.Cl` (stereo not given) showed an IC50 greater than 46 µM.

Turning to `C[C@H]1C(=O)NC2=Nc3cccc(Cl)c3CN21`, the IC50 is greater than 46 µM.

In turn, `CC(/C=C/C=C(\C)C(=O)O[C@@H]1O[C@H](CO[C@@H]2O[C@H](CO)[C@@H](O)[C@H](O)[C@H]2O)[C@@H](O)[C@H](O)[C@H]1O)=C\C=C\C=C(C)\C=C\C=C(/C)C(=O)O[C@@H]1O[C@H](CO[C@@H]2O[C@H](CO)[C@@H](O)[C@H](O)[C@H]2O)[C@@H](O)[C@H](O)[C@H]1O` returned an IC50 greater than 46 µM.

`O=C(O)c1ccccc1OP(=O)(O)O`: the 50% inhibitory concentration (IC50) was greater than 46 µM.

The compound `CCOP(=S)(OCC)Oc1cc(C)nc(C(C)C)n1` returned an IC50 greater than 46 µM.

The compound `COc1ccc2[nH]cc(CCNC(C)=O)c2c1` displayed an IC50 greater than 46 µM.

`[O]=[Bi][O]C(=O)[O][Bi]=[O]` returned an IC50 greater than 46 µM.

In turn, `Cc1ccccc1OCC(O)CNCCOc1ccc(C(N)=O)cc1` (stereo not given) displayed a 50% inhibitory concentration (IC50) greater than 46 µM.

The compound `FCOC(C(F)(F)F)C(F)(F)F` gave an IC50 greater than 46 µM.

`CC(N)C(=O)OC(C)(C)Cc1ccc(Cl)cc1` (stereo not given) came in with an IC50 greater than 46 µM.

In turn, `O[C@H](C)[C@@H](N[C@]([C@@H]2C[C@@H](CCC)CN2C)=O)[C@@H]1[C@H](O)[C@H](O)[C@@H](O)[C@@H](SC)O1.Cl` gave a half-inhibitory concentration (IC50) greater than 46 µM.

For the compound `O=C1C=C3[C@]([C@@]2(F)[C@@H](O)C[C@@]4(C)[C@](C[C@@]5([H])OC(C)(C)O[C@@]45[C@@](CO)=O)([H])[C@@]([H])2C[C@@H]3F)(C)C=C1`, the IC50 is greater than 46 µM.

Regarding `N=C(N)NCCN1CCCCCCC1.O=S(=O)(O)O.O=S(=O)(O)O`, the IC50 is greater than 46 µM.

For the compound `O=C(O)Cc1ccc(-c2ccccc2)cc1`, the IC50 was greater than 46 µM.

`CC[C@H](C)C(=O)O[C@H]1C[C@H](O)C=C2C=C[C@H](C)[C@H](CC[C@@H](O)C[C@@H](O)CC(=O)[O-])[C@H]21.[Na+]` yielded an IC50 greater than 46 µM.

The compound `O=C3/C=C4/CC[C@@H]2[C@H](CC[C@]1(C)C(=O)CC[C@H]12)[C@@]4(C)CC3` displayed an IC50 greater than 46 µM.

`CCCCOCCOCCOCc1cc2c(cc1CCC)OCO2`: the IC50 was greater than 46 µM.

Consider `C#CCN(C)CCCOc1ccc(Cl)cc1Cl.Cl`, for which the IC50 was greater than 46 µM.

On to `Cc1cccc(Nc2ncccc2C(=O)O)c1C`, for which the IC50 was greater than 46 µM.

For `NNCCc1ccccc1.O=S(=O)(O)O`, the IC50 is greater than 46 µM.

`CCCCC(CC)CN1CN(CC(CC)CCCC)CC(C)(N)C1` (stereo not given): the IC50 is greater than 46 µM.

Compound `Cc1ncc([N+](=O)[O-])n1CC(O)CCl` (stereo not given) yielded a half-maximal inhibitory concentration (IC50) greater than 46 µM.
